COc1cc2nccc(Oc3ccc(NC(=O)C4(C(=O)Nc5ccc(F)cc5)CC4)cc3)c2cc1OC.O=C(O)C[C@H](O)C(=O)O
solubility (mole fraction)
Conditions	298.2 K	303.2 K	308.2 K	313.2 K	318.2 K
in DMSO	0.0332	0.0353	0.0376	0.0404	0.0435
in ethanol	0.000391	0.000507	0.000724	0.000977	0.00127
in ethyl acetate	8.8e-05	0.000135	0.000187	0.000277	0.000415
in ethylene glycol	0.000426	0.000605	0.000839	0.00109	0.00138
in isopropanol	0.000529	0.00068	0.000944	0.0013	0.00169
in methanol	0.000169	0.000262	0.000372	0.000503	0.000705
in n-butanol	0.000675	0.000932	0.00128	0.00166	0.00215
in propylene glycol	0.000715	0.00098	0.00131	0.00179	0.00238
in sec-butanol	0.000687	0.000943	0.00135	0.00173	0.00221
in transcutol	0.00179	0.00231	0.00315	0.0042	0.00545
in water	2.27e-07	3.4e-07	4.82e-07	6.52e-07	8.5e-07

Conditions	solubility (mole fraction)
in PEG-400, 298.2 K	0.00354
in PEG-400, 303.2 K	0.00538
in PEG-400, 308.2 K	0.00749
in PEG-400, 313.2 K	0.0105
in PEG-400, 318.2 K	0.0142

Source: BigSolDB 2.1
